The source of these data is EP4342467A1, “KU INHIBITORS FOR USE IN TUMOR THERAPY” (Masarykova Univerzita, priority 2022, dated 2024).

Experiment [1] addresses T1, Ku complex (Homo sapiens, UniProt P12956+P13010). The experiment in a line: microwell protein induced fluorescent enhancement assay (mwPIFE) of Ku-DNA binding. How it is done: A rapid method for detecting protein-nucleic acid interactions by protein induced fluorescence enhancement. Sci Rep 6, 39653. mwPIFE is based on enhanced fluorescence of cyanine fluorophores attached to nucleic acid probes upon protein binding. […] The probe was immobilized in 96 well plates through biotin (Btn) attached to one end of DNA and incubated with purified Ku complex (0.5 pmol) in 50 µl of binding buffer (10 mM calcium acetate, 60 mM potassium acetate, 20 mM TRISacetate pH 7.9, 100 mg BSA/1). Ku-DNA binding was calculated from altered fluorescence measured by a fluorescence plate reader (Valuchova et al., 2016). […]

Experiment [2] has as its target T1, Ku complex. Put plainly: electrophoretic mobility shift assay (EMSA) of Ku binding to double stranded DNA. Conditions: 98 bp DNA probe, compared with STL127705 (Figure 1). The text has this: We also compared iKU-1 (Compound 1) and the published Ku inhibitor STL127705 (Weterings, E., Gallegos, A.C., Dominick, L.N., Cooke, L.S., Bartels, T.N., Vagner, J., Matsunaga, T.O., and Mahadevan, D. (2016). A novel small molecule inhibitor of the DNA repair protein Ku70/80. DNA Repair (Amst) 43, 98-106) in their efficiency to inhibit binding of Ki to double stranded DNA by electrophoretic mobility shift assay (Figure 1). A 98 bp long oligonucleotide that can bind up to four Ku complexes was used as a probe.
DNA (0.6 nM) in 10 µl EMSA buffer (35 mM Tris-Cl pH 7.9, 150 mM KCl, 1 mM EDTA, 0.1 mM Dithiothreitol, 5% Glycerol) was mixed with 10 µl of human Ku complex (100 nM in EMSA buffer) preincubated with the inhibitors for 5 min at room temperature, and incubated for additional 10 min. DNA associated with Ku complexes was seprated by native polyacrylamide gel electrophoresis (5% polyacrylamide 29:1 [Sigma-Aldrich], 0.5 TBE) at 160 V for 4 hrs. Gels were dried in gel dryer on 3MM paper, exposed to phospho-screen (GE Healthcare) and the autoradiograms were generated by scanning with Typhoon (GE Healthcare).
A general note: Mobility shift assays separate free from complexed probe on a gel.

Another experiment concerns DNA-PKcs. Put plainly: DNA-PKcs autophosphorylation (S2056) after bleomycin, Western blotting in HCT116 cells. Type of experiment: cell-based, human. The conditions noted are these: HCT116, pre-incubated 1 hr. How it is done:
iKU-1 blocks activation of DNA-PKcs upon induction of DNA damage in vivo (Figure 2). HCT116 cells were pre-incubated with iKU-1 for 1 hr in McCoy's 5a medium supplemented with 10% Fetal Bovine Serum, 2 mM L-Glutamine, Penicilin/Streptomycin 200 U/l each. DNA breaks were induced by addition of bleomycin and incubated for additional 4 hrs. DNA damage triggers DNA-PKcs activity that leads to its autophosphorylation at the residue 2056. The phosphorylated DNA-PKcs was detected by Western blotting using anti-pDNA PKcs (phospho S2056) antibody [EPR5670] (Abcam, ab124918) and the total amount of DNA-PKcs with the anti-DNA PKcs antibody (BioRad, AHP318), both in 1:10000 dilution in TBS-T buffer overnight at 4°C. The primary antibody was detected by immunostaining with IRDye 800CW-conjugated Goat anti-Rabbit IgG secondary antibody (dilution 1:20000 in TBS-T). The signal was imaged using Odyssey Imager (Li-Cor). […] The total level of DNA-PKcs was not altered by the treatment.
On the technique in general: Immunoblotting shows a protein as a band on a membrane.

A further experiment has as its system HCT116 cells. Put plainly: cell proliferation, ATPlite assay. Format: cell-based. Conditions: Homo sapiens, HCT-116, 120 h, read-out: Inhibition of cell proliferation IC50. How it is done: HCT116, U2OS and HeLa cells were grown in McCoy's 5a medium supplemented with 10% Fetal Bovine Serum, 2 mM L-Glutamine and Penicilin/Streptomycin 200 U/l each in the presence of Compound 1-9. After growth at 37 °C, 5% CO2 for 3 days, monolayer of cells was detached using TrypLE Express (Gibco), cells were counted using 0.4% trypan blue stain and hemocytometer. […] Number of viable cells was estimated using ATPlite kit (Perkin Elmer).
For orientation: ATP-based viability assays read luminescence as a measure of living cells.

The test system of another experiment is HeLa. The experiment in a line: combination with BIBR1532, relative growth by ATPlite. Type of experiment: cell-based, human. Conditions: 10 µM BIBR1532, 0.25 µM iKU-1 or their combination, 4 days.
In another experiment the test system is SKOV3. The experiment in a line: growth of SKOV3 cells by ATPlite. Format: cell-based. The conditions noted are these: 7 days. The method, then:
2,000 SKOV3 and A2780 cells were seeded in 100 µl of McCoy's 5a or RPMI 1640 media, respectively, for one day and then incubated with iKU-1 for 7 days. Number of viable cells was measured by ATPlite kit (Perkin Elmer) and normalized to the treatment with 0.5% DMSO.

T1 sequence (P12956 whole entry): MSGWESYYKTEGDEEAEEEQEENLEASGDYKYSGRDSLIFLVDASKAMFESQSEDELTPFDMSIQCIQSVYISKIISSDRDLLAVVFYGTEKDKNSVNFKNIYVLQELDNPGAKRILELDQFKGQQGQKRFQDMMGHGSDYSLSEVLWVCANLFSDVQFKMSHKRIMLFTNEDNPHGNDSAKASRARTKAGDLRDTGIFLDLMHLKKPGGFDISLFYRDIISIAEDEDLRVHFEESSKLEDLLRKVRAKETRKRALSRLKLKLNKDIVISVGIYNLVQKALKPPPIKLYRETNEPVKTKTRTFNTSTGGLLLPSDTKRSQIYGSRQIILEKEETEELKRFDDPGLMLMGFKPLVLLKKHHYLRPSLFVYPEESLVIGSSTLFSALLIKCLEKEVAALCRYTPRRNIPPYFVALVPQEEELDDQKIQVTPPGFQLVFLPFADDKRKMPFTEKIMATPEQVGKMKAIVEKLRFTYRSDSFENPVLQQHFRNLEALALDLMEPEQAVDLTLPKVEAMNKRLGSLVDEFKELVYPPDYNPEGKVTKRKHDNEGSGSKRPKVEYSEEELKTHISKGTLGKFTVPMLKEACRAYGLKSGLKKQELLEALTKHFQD
T1 sequence (P13010 whole entry): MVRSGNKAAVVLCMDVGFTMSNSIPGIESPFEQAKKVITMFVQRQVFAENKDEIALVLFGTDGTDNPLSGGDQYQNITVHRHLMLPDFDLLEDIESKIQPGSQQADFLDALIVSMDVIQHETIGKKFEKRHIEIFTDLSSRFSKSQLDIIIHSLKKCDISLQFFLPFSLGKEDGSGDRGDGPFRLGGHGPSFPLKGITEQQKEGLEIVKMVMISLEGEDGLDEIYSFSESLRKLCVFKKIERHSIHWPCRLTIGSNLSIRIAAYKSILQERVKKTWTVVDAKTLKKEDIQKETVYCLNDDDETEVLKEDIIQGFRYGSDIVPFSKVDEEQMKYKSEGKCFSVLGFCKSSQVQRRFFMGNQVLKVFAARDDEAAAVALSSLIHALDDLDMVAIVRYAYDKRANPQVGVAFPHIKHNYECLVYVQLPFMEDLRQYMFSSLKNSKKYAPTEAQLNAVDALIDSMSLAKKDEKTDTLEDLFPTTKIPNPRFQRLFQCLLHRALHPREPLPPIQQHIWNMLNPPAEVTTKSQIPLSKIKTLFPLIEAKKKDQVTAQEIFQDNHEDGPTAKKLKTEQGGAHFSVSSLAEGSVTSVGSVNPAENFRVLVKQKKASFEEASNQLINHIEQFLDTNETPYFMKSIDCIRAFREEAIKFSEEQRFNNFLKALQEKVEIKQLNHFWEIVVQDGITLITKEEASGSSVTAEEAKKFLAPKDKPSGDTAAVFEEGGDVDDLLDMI

In the case of `O=C(Nc1nc(-c2ccccn2)cs1)c1cncc(Br)c1` [Compound 1], the IC50 on Ku complex [1] (mwPIFE, estimated from the 0.5 to 8 µM concentration range, read-out: Inhibition of Ku-DNA binding IC50) was 3000 nM; with HCT116 cells it was 500 nM. Further, the remaining activity at 8 µM at Ku complex [1] (read-out: % binding at 8 µM (100% = 0.5% DMSO)) was determined as 5%. Moreover, the “efficiency to inhibit binding of Ku to double stranded DNA” value on Ku complex [2] is listed as “more potent inhibitor of Ku-DNA binding than STL127705”. The “total level of DNA-PKcs” value with DNA-PKcs (then bleomycin for 4 hrs) is “not altered”. Further, the “phosphorylation of DNA-PKcs (S2056)” value in the experiment on DNA-PKcs (then bleomycin up to 30 µg/ml for 4 hrs) is “blocked the phosphorylation”. The “relative growth assessed by ATPlite kit compared to the control sample treated with 0.5% DMSO” value in the experiment with HeLa came out at 1.22. For the same compound, the “sensitivity of cells (growth)” value in the experiment on SKOV3 (SKOV3, 0.5 µM) is recorded as “sensitive”. Besides, in the experiment on SKOV3 (from growth curves (Figure 9)), the “sensitivity of SKOV3 relative to A2780” value came to 10 times.
